Test results: patent US8530489B2 (Vertex Pharmaceuticals Incorporated, priority 2006, dated 2013)
pKi: −log10 of the molar value.

Experiments:
Assay type in all cases: biochemical
PLK1 = PLK1 (Homo sapiens, UniProt P53350); assay: PLK1 Inhibition Assay I (radioactive-phosphate incorporation); conditions: Ki(app); PLK1 Inhibition Assay I or II (table does not say which)
How it was run: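 Ki(app) values came from non-linear regression of initial rates after background subtraction, with phosphopeptide measured by phosphocellulose filter binding and scintillation counting. PLK1 at 2 nM was preincubated with compound (typically from 10 μM, 2-fold dilutions) for 10 min, then run 240 min at 25° C with 350 μM [γ-33P]ATP and 450 μM peptide substrate in HEPES pH 7.5 buffer.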

PLK2 = PLK2 (Homo sapiens, UniProt Q9NYY3); assay: PLK2 Inhibition Assay (radioactive-phosphate incorporation); conditions: selectivity ratio, PLK2 over PLK1
Protocol: (§1) The compounds of the present invention are evaluated as inhibitors of human PLK kinase using the following assays.
Compounds were screened for their ability to inhibit PLK2 using a radioactive-phosphate incorporation assay. Assays were carried out in a mixture of 25 mM HEPES (pH 7.5), 10 mM MgCl2, 0.1% BSA, and 2 mM DTT. Final substrate concentrations were 200 μM [γ-33P]ATP (57 mCi 33P ATP/mmol ATP, Amersham Pharmacia Biotech/Sigma Chemicals) and 300 μM peptide (KKKISDELMDATFADQEAK) [SEQ ID:3]. Assays were carried out at 25° C. in the presence of 25 nM PLK2. An assay stock buffer solution was prepared containing all of the reagents listed above, with the exception of ATP and the test compound of interest. 30 μL of the stock solution was placed in a 96 well plate followed by addition of 2 μL of DMSO stock containing serial dilutions of the test compound (typically starting from a final concentration of 10 μM with 2-fold serial dilutions) in duplicate (final DMSO concentration 5%). The plate was pre-incubated for 10 minutes at 25° C. and the reaction initiated by addition of 8 μL [γ-33P]ATP (final concentration 200 μM).
(§2) The reaction was stopped after 90 minutes by the addition of 100 μL 0.14 M phosphoric acid. A multiscreen phosphocellulose filter 96-well plate (Millipore, Cat No. MAPHN0B50) was pretreated with 100 μL 0.2M phosphoric acid prior to the addition of 125 μL of the stopped assay mixture. The plate was washed with 4×200 μL 0.2 M phosphoric acid. After drying, 100 μL Optiphase ‘SuperMix’ liquid scintillation cocktail (Perkin Elmer) was added to the well prior to scintillation counting (1450 Microbeta Liquid Scintillation Counter, Wallac).
(§3) After removing mean background values for all of the data points, Ki(app) data were calculated from non-linear regression analysis of the initial rate data using the Prism software package (GraphPad Prism version 3.0cx for Macintosh, GraphPad Software, San Diego Calif., USA).

PLK3 (S38-A340) = target: T1, PLK3 (S38-A340) (Homo sapiens, UniProt Q9H4B4); assay: PLK3 Inhibition Assay (radioactive-phosphate incorporation); conditions: selectivity ratio, PLK3 over PLK1
T1 construct: in the presence of 5 nM PLK3 (S38-A340)
Protocol: as §1
Compounds were screened for their ability to inhibit PLK3 using a radioactive-phosphate incorporation assay. Assays were carried out in a mixture of 25 mM HEPES (pH 7.5), 10 mM MgCl2, and 1 mM DTT. Final substrate concentrations were 75 μM [γ-33P]ATP (60 mCi 33P ATP/mmol ATP, Amersham Pharmacia Biotech/Sigma Chemicals) and 10 μM peptide (SAM68 protein Δ332-443). Assays were carried out at 25° C. in the presence of 5 nM PLK3 (S38-A340). An assay stock buffer solution was prepared containing all of the reagents listed above, with the exception of ATP and the test compound of interest. 30 μL of the stock solution was placed in a 96 well plate followed by addition of 2 μL of DMSO stock containing serial dilutions of the test compound (typically starting from a final concentration of 10 μM with 2-fold serial dilutions) in duplicate (final DMSO concentration 5%). The plate was pre-incubated for 10 minutes at 25° C. and the reaction initiated by addition of 8 μL [γ-33P]ATP (final concentration 75 μM).
as §2, with “60” for “90”, “0.14M” for “0.14 M”
as §3

Chain of PLK2 (Q9NYY3 whole entry): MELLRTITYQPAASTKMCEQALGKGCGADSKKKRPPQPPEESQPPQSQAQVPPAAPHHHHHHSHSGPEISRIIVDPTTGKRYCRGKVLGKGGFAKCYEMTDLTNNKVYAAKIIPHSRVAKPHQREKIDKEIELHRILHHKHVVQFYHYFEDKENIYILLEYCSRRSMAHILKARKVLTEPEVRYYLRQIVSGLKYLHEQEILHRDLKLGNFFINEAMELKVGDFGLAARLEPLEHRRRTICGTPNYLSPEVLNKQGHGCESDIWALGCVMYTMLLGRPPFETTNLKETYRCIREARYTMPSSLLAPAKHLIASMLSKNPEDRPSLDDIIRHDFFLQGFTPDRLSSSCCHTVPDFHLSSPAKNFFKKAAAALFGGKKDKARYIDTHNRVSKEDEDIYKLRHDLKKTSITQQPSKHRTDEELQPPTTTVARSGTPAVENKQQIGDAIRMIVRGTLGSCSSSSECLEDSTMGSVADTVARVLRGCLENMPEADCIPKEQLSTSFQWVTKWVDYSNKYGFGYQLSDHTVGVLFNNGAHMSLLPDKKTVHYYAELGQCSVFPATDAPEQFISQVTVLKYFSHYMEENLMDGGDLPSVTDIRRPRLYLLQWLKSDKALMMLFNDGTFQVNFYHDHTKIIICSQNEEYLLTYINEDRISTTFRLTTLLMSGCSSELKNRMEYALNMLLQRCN
T1 sequence (Q9H4B4 58-340 limits assumed): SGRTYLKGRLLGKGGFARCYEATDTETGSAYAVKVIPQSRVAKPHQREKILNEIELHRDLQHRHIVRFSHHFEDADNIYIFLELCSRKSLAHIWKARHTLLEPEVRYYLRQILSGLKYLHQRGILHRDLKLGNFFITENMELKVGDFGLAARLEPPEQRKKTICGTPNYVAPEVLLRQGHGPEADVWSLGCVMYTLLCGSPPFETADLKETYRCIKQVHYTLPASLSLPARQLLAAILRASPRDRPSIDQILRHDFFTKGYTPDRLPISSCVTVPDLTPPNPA
Chain of PLK1 (P53350 whole entry): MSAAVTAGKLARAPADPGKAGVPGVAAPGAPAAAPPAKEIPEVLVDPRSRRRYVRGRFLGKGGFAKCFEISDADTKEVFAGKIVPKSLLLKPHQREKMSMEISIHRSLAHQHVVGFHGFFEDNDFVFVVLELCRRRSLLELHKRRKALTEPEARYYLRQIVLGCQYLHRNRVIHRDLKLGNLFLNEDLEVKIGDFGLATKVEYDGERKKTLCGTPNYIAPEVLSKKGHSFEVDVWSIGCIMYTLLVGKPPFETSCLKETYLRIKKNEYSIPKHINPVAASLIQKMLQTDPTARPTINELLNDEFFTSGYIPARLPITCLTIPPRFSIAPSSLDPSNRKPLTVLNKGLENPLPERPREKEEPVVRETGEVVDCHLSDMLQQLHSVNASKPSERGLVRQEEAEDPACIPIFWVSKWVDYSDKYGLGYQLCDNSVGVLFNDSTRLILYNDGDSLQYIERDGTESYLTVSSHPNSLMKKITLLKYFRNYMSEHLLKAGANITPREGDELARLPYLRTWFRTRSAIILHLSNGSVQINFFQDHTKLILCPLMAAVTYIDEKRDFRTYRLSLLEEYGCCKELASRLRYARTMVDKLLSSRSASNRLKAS

Row | pKi (PLK1) | Ki(PLK2)/Ki(PLK1) (PLK2) | Ki(PLK3)/Ki(PLK1) (PLK3 (S38-A340)) | Compound
1 | > 8.52 | 2952 | – | C[C@@H]1CN(c2ccc([C@@H](C)Nc3ncc(C#N)c(-c4c[nH]c5ncc(C(F)(F)F)cc45)n3)cn2)C[C@H](C)N1 [Compound I-276, 2-((R)-1-(6-((3S,5R)-3,5-dimethylpiperazin-1-yl)pyridin-3-yl)ethylamino)-4-(5-(trifluoromethyl)-1H-pyrrolo[2,3-b]pyridin-3-yl)pyrimidine-5-carbonitrile]
2 | > 8.52 | 113 | 28 | CC(Nc1ncc(C#N)c(-c2c[nH]c3ncc(C(F)(F)F)cc23)n1)c1ccc(N2CCN(C)CC2)cc1 (stereo not drawn) [Compound I-102, 2-(1-(4-(4-methylpiperazin-1-yl)phenyl)ethylamino)-4-(5-(trifluoromethyl)-1H-pyrrolo[2,3-b]pyridin-3-yl)pyrimidine-5-carbonitrile]
3 | > 8.52 | 1152 | – | C[C@@H](Nc1ncc(C#N)c(-c2c[nH]c3ncc(C(F)(F)F)cc23)n1)c1ccc(N2CCNCC2)nc1 [Compound I-267, 2-((R)-1-(6-(piperazin-1-yl)pyridin-3-yl)ethylamino)-4-(5-(trifluoromethyl)-1H-pyrrolo[2,3-b]pyridin-3-yl)pyrimidine-5-carbonitrile]
4 | > 8.52 | <30 | <23 | C[C@@H](Nc1ncc(C#N)c(-c2c[nH]c3ncc(C(F)(F)F)cc23)n1)c1ccc(N2CCN(C)CC2)c(F)c1 [Compound I-142, 2-((R)-1-(3-fluoro-4-(4-methylpiperazin-1-yl)phenyl)ethylamino)-4-(5-(trifluoromethyl)-1H-pyrrolo[2,3-b]pyridin-3-yl)pyrimidine-5-carbonitrile]
5 | > 8.52 | 323 | 185 | CC(Nc1ncc(C#N)c(-c2c[nH]c3ncc(C(F)(F)F)cc23)n1)c1ccc(N2CCNCC2)cc1 (stereo not drawn) [Compound I-124, 2-(1-(4-(piperazin-1-yl)phenyl)ethylamino)-4-(5-(trifluoromethyl)-1H-pyrrolo[2,3-b]pyridin-3-yl)pyrimidine-5-carbonitrile]
6 | > 8.52 | 210 | 140 | C[C@@H](Nc1ncc(C#N)c(-c2c[nH]c3ncc(C(F)(F)F)cc23)n1)c1ccc(N2CCN(C)CC2)cc1 [Compound I-127, 2-((R)-1-(4-(4-methylpiperazin-1-yl)phenyl)ethylamino)-4-(5-(trifluoromethyl)-1H-pyrrolo[2,3-b]pyridin-3-yl)pyrimidine-5-carbonitrile]
7 | > 8.52 | <130 | <100 | C[C@@H](Nc1ncc(C#N)c(-c2c[nH]c3ncc(C(F)(F)F)cc23)n1)c1ccc(N2CCN(C)CC2)cc1F [Compound I-149, 2-((R)-1-(2-fluoro-4-(4-methylpiperazin-1-yl)phenyl)ethylamino)-4-(5-(trifluoromethyl)-1H-pyrrolo[2,3-b]pyridin-3-yl)pyrimidine-5-carbonitrile]
8 | > 8.52 | 4074 | – | C[C@@H]1CN(c2ccc([C@@H](C)Nc3ncc(C#N)c(-c4c[nH]c5ncc(C(F)(F)F)cc45)n3)cn2)CCN1 [Compound I-274, 2-((R)-1-(6-((R)-3-methylpiperazin-1-yl)pyridin-3-yl)ethylamino)-4-(5-(trifluoromethyl)-1H-pyrrolo[2,3-b]pyridin-3-yl)pyrimidine-5-carbonitrile]
9 | > 8.52 | – | 39 | CC(Nc1ncc(C#N)c(-c2c[nH]c3ncc(C(F)(F)F)cc23)n1)c1ccc(N[C@H]2CCNC2)nc1 (stereo partly drawn) [Compound I-277, 2-(1-(6-((S)-pyrrolidin-3-ylamino)pyridin-3-yl)ethylamino)-4-(5-(trifluoromethyl)-1H-pyrrolo[2,3-b]pyridin-3-yl)pyrimidine-5-carbonitrile]
10 | < 7.40 | – | – | CNc1ncc(C#N)c(-c2c[nH]c3ncc(C(F)(F)F)cc23)n1 [Compound I-2, 2-(methylamino)-4-(5-(trifluoromethyl)-1H-pyrrolo[2,3-b]pyridin-3-yl)pyrimidine-5-carbonitrile]
11 | < 7.40 | – | – | CCN(Cc1ccccc1)c1ncc(C#N)c(-c2c[nH]c3ncc(C(F)(F)F)cc23)n1 [Compound I-11, 2-(benzyl(ethyl)amino)-4-(5-(trifluoromethyl)-1H-pyrrolo[2,3-b]pyridin-3-yl)pyrimidine-5-carbonitrile]
12 | 7.40 to 8.52 | – | – | C[C@@H](Nc1ncc(C#N)c(-c2c[nH]c3ncc(C(F)(F)F)cc23)n1)c1ccc(N2CC[C@H](N(C)C)C2)nc1 [Compound I-290, 2-((R)-1-(6-((S)-3-(dimethylamino)pyrrolidin-1-yl)pyridin-3-yl)ethylamino)-4-(5-(trifluoromethyl)-1H-pyrrolo[2,3-b]pyridin-3-yl)pyrimidine-5-carbonitrile]
13 | 7.40 to 8.52 | – | – | N#Cc1cnc(NC[C@H](O)CO)nc1-c1c[nH]c2ncc(C(F)(F)F)cc12 [Compound I-114, 2-((S)-2,3-dihydroxypropylamino)-4-(5-(trifluoromethyl)-1H-pyrrolo[2,3-b]pyridin-3-yl)pyrimidine-5-carbonitrile]
14 | 7.40 to 8.52 | – | – | CCC(Nc1ncc(C#N)c(-c2c[nH]c3ncc(C(F)(F)F)cc23)n1)C1CCN(S(=O)(=O)C(C)C)CC1 (stereo not drawn) [Compound I-182, 2-(1-(1-(isopropylsulfonyl)piperidin-4-yl)propylamino)-4-(5-(trifluoromethyl)-1H-pyrrolo[2,3-b]pyridin-3-yl)pyrimidine-5-carbonitrile]
15 | 7.40 to 8.52 | – | – | C[C@@H](Nc1ncc(C#N)c(-c2c[nH]c3ncc(C(F)(F)F)cc23)n1)c1ccc(N2CCC(N(C)C)CC2)nc1 [Compound I-294, 2-((R)-1-(6-(4-(dimethylamino)piperidin-1-yl)pyridin-3-yl)ethylamino)-4-(5-(trifluoromethyl)-1H-pyrrolo[2,3-b]pyridin-3-yl)pyrimidine-5-carbonitrile]
16 | > 8.52 | – | – | C[C@@H](Nc1ncc(C#N)c(-c2c[nH]c3ncc(C(F)(F)F)cc23)n1)[C@H]1CC[C@H](N2CCN(C)CC2)CC1 [Compound I-261, 2-((R)-1-((1r,4R)-4-(4-methylpiperazin-1-yl)cyclohexyl)ethylamino)-4-(5-(trifluoromethyl)-1H-pyrrolo[2,3-b]pyridin-3-yl)pyrimidine-5-carbonitrile]
17 | > 8.52 | – | – | CC(Nc1ncc(C#N)c(-c2c[nH]c3ncc(C(F)(F)F)cc23)n1)c1ccc(N2CCC(O)CC2)nc1 (stereo not drawn) [Compound I-162, 2-(1-(6-(4-hydroxypiperidin-1-yl)pyridin-3-yl)ethylamino)-4-(5-(trifluoromethyl)-1H-pyrrolo[2,3-b]pyridin-3-yl)pyrimidine-5-carbonitrile]
18 | < 7.40 | – | – | N#Cc1cnc(NC2CCc3ccccc32)nc1-c1c[nH]c2ncc(C(F)(F)F)cc12 (stereo not drawn) [Compound I-38, 2-(2,3-dihydro-1H-inden-1-ylamino)-4-(5-(trifluoromethyl)-1H-pyrrolo[2,3-b]pyridin-3-yl)pyrimidine-5-carbonitrile]
19 | > 8.52 | – | – | CCC(Nc1ncc(C#N)c(-c2c[nH]c3ncc(C(F)(F)F)cc23)n1)C1CCN(CC#N)CC1 (stereo not drawn) [Compound I-173, 2-(1-(1-(cyanomethyl)piperidin-4-yl)propylamino)-4-(5-(trifluoromethyl)-1H-pyrrolo[2,3-b]pyridin-3-yl)pyrimidine-5-carbonitrile]
